The results in this text go back to PubChem BioAssay (NCI).

“And” between values parts separate entries of the source, which are not always exact repeats. Equal values may be shown once.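 The compound was tested at five concentrations on cells cultured in 96-well plates, with a 48-hour exposure period. At the GI50, growth is halved. TGI marks complete inhibition of growth.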 A value given as a limit tells only on which side of the number the result lay.

What all share (assay): NCI anticancer screen, dose series, 48 h
In assay [1] the test system is NCI-H226 lung.
The subject of assay [2] is SR leukemia.
Assay [3] deals with CCRF-CEM leukemia.
The test system of assay [4] is UO-31 renal.
Assay [5] deals with DU-145 prostate.
The test system of assay [6] is HL-60(TB) leukemia.
Assay [7] deals with T-47D breast.
Assay [8] deals with KM12 colon.
For assay [9], the system named is M14 melanoma.
Assay [10] concerns SF-295 CNS.

Take `COc1ccc(OC(=O)N2C/C(=C\c3ccccc3)C(=O)/C(=C/c3ccccc3)C2)cc1`: the TGI was 30.3 µM in assay [1]; 2.64 µM in assay [2]; 6.73 µM in assay [3]; 23.6 µM in assay [4]; 65.1 µM in assay [5]; 14 µM in assay [6]. Moreover, the TGI in assay [7] worked out at 48.1 µM; in [8] it was 4.18 µM; in assay [9] it was 7.97 µM; in [10], 10.1 µM.
For the compound `COc1cc(/C=C2\CCC/C(=C\c3cc(CN4CCCC4)c(O)c(OC)c3)C2=O)cc(CN2CCCC2)c1O`, the GI50 in [1] is 2.57 µM; in assay [2], 2560 nM; in assay [3] it was 2710 nM; in assay [4], 10.1 µM; in [5], 4.63 µM; in assay [6], 2.15 µM. Further, the GI50 in assay [7] is 7.97 µM; in [8], 2.73 µM; in [9], 2.9 µM; in assay [10] it was 9.89 µM. Further, the TGI amounted to 6.84 µM in assay [1]; 11.8 µM in assay [2]; 8.37 µM in [3]; 21.7 µM in [4]; 15.4 µM in assay [5]; 5.75 µM in assay [6]. Moreover, the TGI was 22.3 µM in assay [7], 7.15 µM in assay [8], 8.63 µM in assay [9] and 25.2 µM in assay [10].
Turning to `CC(C)c1cnc(-c2cc(Cl)ccc2F)cc1Nc1ccncc1C(=O)NC(CO)CO`, the GI50 in assay [1] was 13.6 µM; in assay [2], 16200 nM; in assay [3] it was 11600 nM; in assay [4], 2.87 µM; in assay [5], 13.4 µM; in assay [6] it was 20.1 µM. For the same compound, the GI50 in assay [7] is 4.5 µM; in [8], 17.7 µM; in [9], 17.8 µM; in assay [10], 13.1 µM. Besides, the TGI in assay [1] is 34.8 µM; in assay [2], 53.7 µM; in [3], 54.2 µM; in assay [4] it was 21.9 µM; in assay [5], 42 µM; in assay [6], 60.7 µM. Besides, the TGI in assay [7] came out at 34.8 µM; in assay [8], 37.4 µM; in assay [9], 39 µM; in assay [10], 26.6 µM.
With `O=C1CCc2cc(Br)ccc2O1`, the TGI in assay [1], in assay [2], in assay [3], in [5], in [6] and in assay [7] was greater than 100 µM throughout. In addition, the TGI in [9] and in assay [10] was greater than 100 µM in each case.
Regarding `CC1(C)CC[C@]23CC[C@]4(C)[C@H](CC[C@@H]5[C@@]6(C)CCCNC(C)(C)[C@@H]6CC[C@]54C)[C@H]2[C@H]1OC3`, the GI50 is 1.7 µM in assay [1]; 1490 nM in assay [2]; 2320 nM in [3]; 1.56 µM in assay [4]; 1.74 µM in assay [5]; 1.71 µM in [7]. The values for the GI50 in [9] and in [10] were 1.77 µM and 1.7 µM, respectively. In addition, the TGI was determined as 3.47 µM in [1]; 4.12 µM in assay [2]; 6.73 µM in [3]; 3 µM in [4]; 3.23 µM in assay [5]; 3.69 µM in assay [7]. Moreover, the TGI is 3.31 µM in assay [9] and 3.19 µM in [10].
For the compound `Cc1c(O)cccc1C(=O)N[C@@H](CSc1ccccc1)[C@H](O)CN1C[C@H]2CCCC[C@H]2C[C@H]1C(=O)NC(C)(C)C`, the GI50 was 4.84 µM and 5.57 µM in assay [1]; 2210 nM in assay [2]; 2760 nM and 8590 nM in [3]; 3.45 µM and 3.81 µM in assay [4]; 6.58 µM and 8.27 µM in assay [5]; 2.95 µM and 3.43 µM in [6]. The GI50 in assay [7] was 3.79 µM and 6.02 µM; in assay [8], 3.45 µM and 4.99 µM; in assay [9], 4.45 µM and 5.2 µM; in assay [10], 2.53 µM and 3.49 µM. In addition, the TGI in assay [1] was 14 µM and 16.5 µM; in assay [2] it was 5.48 µM; in assay [3], 6.83 µM and > 27 µM; in assay [4], 16.4 µM and 19.5 µM; in assay [5] it was 25.2 µM and 31.8 µM; in assay [6] it was > 26 µM and 13.6 µM. Besides, the TGI is 19.4 µM and > 55.6 µM in [7]; 10.4 µM and 20.1 µM in assay [8]; 16.4 µM and 15.4 µM in [9]; 6.97 µM and 25.5 µM in assay [10].
As to `c1cc[n+](Cc2c3ccccc3cc3c2ccc2ccccc23)cc1`, the GI50 in assay [1] is 2.92 µM; in assay [2], 2640 nM; in assay [3], 4730 nM; in assay [4], 27.5 µM; in assay [5] it was 6.45 µM; in assay [6], 3.15 µM. Further, the GI50 in assay [7] was 2.34 µM; in assay [8], 3.09 µM; in [9] it was 5.05 µM; in assay [10], 3.42 µM. Also, the TGI in assay [1] was 24.8 µM; in assay [2], 11.6 µM; in assay [3], 24 µM; in assay [4], greater than 100 µM; in assay [5], 20.4 µM; in [6], 12.5 µM. In addition, the TGI in [7] came to 7.92 µM; in assay [8] it was 11.8 µM; in assay [9], 19.7 µM; in assay [10] it was 23.2 µM.
Turning to `COc1ccc2nc3cc([N+](=O)[O-])ccc3c(NCCO)c2c1`, the GI50 in assay [1] was 3.67 µM; in assay [2], 3130 nM; in assay [3] it was 2170 nM; in [4], 4.75 µM; in assay [5], 3.62 µM; in assay [6], 3.03 µM. The GI50 in assay [7] is 0.539 µM; in [8], 2.17 µM; in [9] it was 1.89 µM; in [10], 3.49 µM. The TGI is 14.7 µM in assay [1]; 13.4 µM in assay [3]; 19 µM in [4]; 4.65 µM in assay [7]; 6.8 µM in assay [8]; 4.28 µM in assay [9]. The TGI in assay [10] was found to be 15.7 µM.
For the compound `CC(C)C[C@H](NC(=O)[C@@H](Cc1ccccc1)n1ccc(Nc2ccccc2)cc1=O)B(O)O`, the GI50 in assay [1] was 0.164 µM; in assay [2], 95.5 nM; in [3] it was 340 nM; in [4], 0.561 µM; in [5] it was 0.783 µM; in [7] it was 0.413 µM. Moreover, the GI50 in assay [8] was 0.375 µM; in assay [9], 0.278 µM; in assay [10] it was 0.285 µM. The TGI in assay [1] stood at 0.348 µM; in assay [2] it was 2.02 µM; in assay [3], 5.98 µM; in assay [4], 3.13 µM; in assay [5], 16.7 µM; in assay [7] it was 3.97 µM. Also, the TGI was determined as 1.51 µM in assay [8], 1.91 µM in assay [9] and 1.22 µM in assay [10].
